# Earlier results as cited in patent publication US20050256196A1, “Decreasing brain neuronal glutamate levels using alpha-keto branched chain amino acids” (Odessa Pharma, priority 2004, published 2005).
# Columns and labels:
# [1] = in vivo
# glutamine synthetase [2] = biological target: T1, glutamine synthetase (Rattus norvegicus, UniProt P09606); parameters: known convulsant doses of MSO (MW 179) to rats; host or cells: rats, in vivo (endogenous enzyme)
# glutamine synthetase [3] = biological target: T1, glutamine synthetase
# glutamine synthetase [4] = biological target: T1, glutamine synthetase; settings: normal animals after MSO; reduced from 5.6
# [5] = rats, known convulsant doses of MSO
# T1 sequence (P09606 2-373 limits assumed): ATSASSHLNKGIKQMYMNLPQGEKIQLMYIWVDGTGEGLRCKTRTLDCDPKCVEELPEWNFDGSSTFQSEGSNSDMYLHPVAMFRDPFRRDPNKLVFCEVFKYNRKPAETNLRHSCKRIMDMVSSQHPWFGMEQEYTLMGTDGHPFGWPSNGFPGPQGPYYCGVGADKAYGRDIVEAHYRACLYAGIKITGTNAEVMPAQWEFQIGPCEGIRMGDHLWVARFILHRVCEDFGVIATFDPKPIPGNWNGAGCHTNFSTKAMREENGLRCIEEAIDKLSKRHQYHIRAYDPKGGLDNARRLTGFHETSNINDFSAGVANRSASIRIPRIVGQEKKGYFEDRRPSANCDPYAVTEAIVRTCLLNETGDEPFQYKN
smiles,measurement,setting,value
"CP(=O)(O)CCC(N)C(=O)O [Glufosinate, ammonium-D-L-homoalanine-4-yl(methyl)-phosphinate]",crossing of the blood-brain barrier,[1],does not cross the blood-brain barrier
CSCC[C@H](N)C(=O)O [L-methionine],convulsant activity of MSO on simultaneous administration of L-methionine,glutamine synthetase [2]; [5],prevents the convulsant activity
same,glutamine synthetase inhibitory activity of MSO on simultaneous administration of L-methionine,glutamine synthetase [2]; [5],preserves the glutamine synthetase inhibitory activity
"CS(=N)(=O)CC[C@H](N)C(=O)O (stereo partly drawn) [MSO, L-methionine S-sulfoximine]",reduction of nerve terminal glutamate levels,glutamine synthetase [3],52%
same,reduction of brain astrocyte levels of glutamine,glutamine synthetase [3]; normal animals,66%
same,brain levels of glutamine,glutamine synthetase [4],1.8 mmol/kg brain
same,convulsant effect,glutamine synthetase [2]; depending on the dosage,can cause periodic convulsions
